Data: paper PMC2577671, “Evaluation of Dimebon in cellular model of Huntington's disease” (Molecular Neurodegeneration, 2008)

Experiments:
[1] = target: T1, Serotonin 5-HT2c receptor (Homo sapiens, UniProt P28335); experiment: MDS Pharma Services binding screen at […]
T1 construct: gene HTR2C

α1A-Adrenergic receptor = target: T2, α1A-Adrenergic receptor (Rattus norvegicus, UniProt P43140); experiment: MDS Pharma Services binding screen at […]
T2 construct: gene Adra1a

Histamine H2 receptor = target: T3, Histamine H2 receptor (Homo sapiens, UniProt P25021); experiment: MDS Pharma Services binding screen at […]
T3 construct: gene HRH2

Serotonin 5-HT6 receptor [2] = target: T4, Serotonin 5-HT6 receptor (Homo sapiens, UniProt P50406); experiment: MDS Pharma Services binding screen at […]
T4 construct: gene HTR6

α1D-Adrenergic receptor = target: T5, α1D-Adrenergic receptor (Homo sapiens, UniProt P25100); experiment: MDS Pharma Services binding screen at […]
T5 construct: gene ADRA1D

Adenosine A2A = target: T6, Adenosine A2A (Homo sapiens, UniProt P29274); experiment: biochemical; set-up: MDS Pharma Lead Profiling screen, binding assays, per cent inhibition, duplicate
T6 construct: gene ADORA2A
Description: (§1) The activity of Dimebon against selected set of biochemical targets was performed by MDS Pharma Services . The Dimebon was provided to MDS Pharma as dry powder, dissolved in DMSO and tested in 10 μM concentrations. The standard Lead Profiling + CYP450 screen was performed according to MDS Pharma specifications with additional custom-chosen targets added to the screen as indicated. To further understand potential mechanisms responsible for clinical effects of Dimebon, we evaluated Dimebon against a set of selected biochemical targets. Dimebon evaluation was performed by MDS Pharma Services . The standard Lead Profiling + CYP450 screen was performed with additional custom-selected targets added to the screen. The results of the screen obtained at 10 μM of Dimebon are provided as Additional File 3. […] Low affinity (50–60% inhibition) interactions were also observed for CYP450, 2C19 receptor, voltage-gated L-type Ca^2+ channel, Dopamine D4.2 receptor, and Serotonin 5-HT1 receptor. […] Supplementary file 1750-1326-3-15-S3.pdf: Additional file 3 The results of Dimebon screening against a selected set of biochemical targets. The complete results obtained by MDS Pharma with a selected list of biochemical targets using 10 μM of Dimebon as a probe. The Cat numbers refer to the MDS Pharma Services assay specification. The receptors and species are listed. Dimebon was tested at 10 μM concentratio in duplicate. The % inhibition by Dimebon is shown numerically and graphically for each receptor. Significant targets (defined as % inhibition > 50%) are highlighted in yellow. Click here for file

Adrenergic beta1 = target: T7, Adrenergic beta1 (Homo sapiens, UniProt P08588); experiment: biochemical; set-up: MDS Pharma Lead Profiling screen, binding assays, per cent inhibition, duplicate
T7 construct: gene ADRB1
Description: as §1

[3] = target: T8, G Protein-Coupled Receptor GPR103 (Homo sapiens, UniProt Q96P65); experiment: biochemical; set-up: MDS Pharma Lead Profiling screen, binding assays, per cent inhibition, duplicate
T8 construct: gene QRFPR
Description: as §1

Opiate mu (OP3, MOP) = target: T9, Opiate mu (OP3, MOP) (Homo sapiens, UniProt P35372); experiment: biochemical; set-up: MDS Pharma Lead Profiling screen, binding assays, per cent inhibition, duplicate
T9 construct: gene OPRM1
Description: as §1

[4] = target: T1, Serotonin 5-HT2c receptor; experiment: biochemical; set-up: MDS Pharma Lead Profiling screen, binding assays, per cent inhibition, duplicate
Description: as §1

Serotonin 5-HT6 receptor [5] = target: T4, Serotonin 5-HT6 receptor; experiment: biochemical; set-up: MDS Pharma Lead Profiling screen, binding assays, per cent inhibition, duplicate
Description: as §1

Tachykinin NK1 = target: T10, Tachykinin NK1 (Homo sapiens, UniProt P25103); experiment: biochemical; set-up: MDS Pharma Lead Profiling screen, binding assays, per cent inhibition, duplicate
T10 construct: gene TACR1
Description: as §1

α1B-Adrenergic receptor = target: T11, α1B-Adrenergic receptor (Rattus norvegicus, UniProt P15823); experiment: biochemical; set-up: MDS Pharma Lead Profiling screen, binding assays, per cent inhibition, duplicate
T11 construct: gene Adra1b
Description: as §1

Potassium Channel hERG = target: T12, Potassium Channel hERG (Homo sapiens, UniProt Q12809); experiment: in vitro; set-up: MDS Pharma Lead Profiling screen, binding assays, per cent inhibition, duplicate
T12 construct: gene KCNH2
Description: as §1, with “Dimebon was tested at 10 μM concentratio in duplicate. The % inhibition by Dimebon is shown numerically and graphically for each receptor. Significant targets (defined as % inhibition > 50%) are highlighted in yellow. Click here for file” left out

[6] = target: T13, Nicotinic Acetylcholine alpha1, Bungarotoxin (Homo sapiens, UniProt P02708); experiment: biochemical; set-up: MDS Pharma Lead Profiling screen, binding assays, per cent inhibition, duplicate; settings: read-out: % INHIBITION
T13 construct: gene CHRNA1

CYP450, 2C19 = target: T14, CYP450, 2C19 (Homo sapiens, UniProt P33261); experiment: in vitro; set-up: MDS Pharma Lead Profiling + CYP450 screen, enzyme assays, per cent inhibition, duplicate
T14 construct: gene CYP2C19
Description: as §1

CYP450, 2C9 = target: T15, CYP450, 2C9 (Homo sapiens, UniProt P11712); experiment: in vitro; set-up: MDS Pharma Lead Profiling + CYP450 screen, enzyme assays, per cent inhibition, duplicate
T15 construct: gene CYP2C9
Description: as §1

CYP450, 2D6 = target: T16, CYP450, 2D6 (Homo sapiens, UniProt P10635); experiment: in vitro; set-up: MDS Pharma Lead Profiling + CYP450 screen, enzyme assays, per cent inhibition, duplicate
T16 construct: gene CYP2D6
Description: as §1

CYP450, 3A4 = target: T17, CYP450, 3A4 (Homo sapiens, UniProt P08684); experiment: in vitro; set-up: MDS Pharma Lead Profiling + CYP450 screen, enzyme assays, per cent inhibition, duplicate
T17 construct: gene CYP3A4
Description: as §1

Monoamine Oxidase MAO-A = target: T18, Monoamine Oxidase MAO-A (Homo sapiens, UniProt P21397); experiment: biochemical; set-up: MDS Pharma Lead Profiling + CYP450 screen, enzyme assays, per cent inhibition, duplicate
T18 construct: gene MAOA
Description: as §1

Monoamine Oxidase MAO-B = target: T19, Monoamine Oxidase MAO-B (Homo sapiens, UniProt P27338); experiment: biochemical; set-up: MDS Pharma Lead Profiling + CYP450 screen, enzyme assays, per cent inhibition, duplicate
T19 construct: gene MAOB
Description: as §1

[7] = target: Peptidase, BACE1 (beta-Secretase) (Homo sapiens, UniProt P56817); experiment: biochemical; set-up: MDS Pharma Lead Profiling + CYP450 screen, enzyme assays, per cent inhibition, duplicate
Description: as §1

T1 sequence (P28335 33-458): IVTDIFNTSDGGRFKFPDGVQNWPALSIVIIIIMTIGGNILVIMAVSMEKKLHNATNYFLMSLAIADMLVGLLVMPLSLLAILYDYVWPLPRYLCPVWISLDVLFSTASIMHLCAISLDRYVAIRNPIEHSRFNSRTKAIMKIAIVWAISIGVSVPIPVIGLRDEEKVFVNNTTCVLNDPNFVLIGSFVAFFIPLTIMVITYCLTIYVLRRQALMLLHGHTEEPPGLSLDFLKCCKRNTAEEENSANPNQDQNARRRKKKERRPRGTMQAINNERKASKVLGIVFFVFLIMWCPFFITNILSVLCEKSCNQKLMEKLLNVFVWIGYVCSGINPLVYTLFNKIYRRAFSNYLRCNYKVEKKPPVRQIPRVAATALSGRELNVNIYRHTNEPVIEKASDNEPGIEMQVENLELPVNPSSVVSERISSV
T4 sequence (P50406 whole entry): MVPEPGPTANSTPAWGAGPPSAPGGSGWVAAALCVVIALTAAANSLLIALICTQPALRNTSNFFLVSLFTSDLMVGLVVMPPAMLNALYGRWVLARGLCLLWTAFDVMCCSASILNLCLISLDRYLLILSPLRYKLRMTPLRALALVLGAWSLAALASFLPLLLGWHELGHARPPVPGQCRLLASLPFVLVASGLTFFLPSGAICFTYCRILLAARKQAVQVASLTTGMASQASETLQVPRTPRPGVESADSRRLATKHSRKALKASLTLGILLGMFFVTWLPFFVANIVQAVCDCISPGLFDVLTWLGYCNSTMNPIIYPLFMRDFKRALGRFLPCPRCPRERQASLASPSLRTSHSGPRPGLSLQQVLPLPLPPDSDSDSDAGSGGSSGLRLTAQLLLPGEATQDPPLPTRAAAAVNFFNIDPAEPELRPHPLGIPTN
T10 sequence (P25103 whole entry): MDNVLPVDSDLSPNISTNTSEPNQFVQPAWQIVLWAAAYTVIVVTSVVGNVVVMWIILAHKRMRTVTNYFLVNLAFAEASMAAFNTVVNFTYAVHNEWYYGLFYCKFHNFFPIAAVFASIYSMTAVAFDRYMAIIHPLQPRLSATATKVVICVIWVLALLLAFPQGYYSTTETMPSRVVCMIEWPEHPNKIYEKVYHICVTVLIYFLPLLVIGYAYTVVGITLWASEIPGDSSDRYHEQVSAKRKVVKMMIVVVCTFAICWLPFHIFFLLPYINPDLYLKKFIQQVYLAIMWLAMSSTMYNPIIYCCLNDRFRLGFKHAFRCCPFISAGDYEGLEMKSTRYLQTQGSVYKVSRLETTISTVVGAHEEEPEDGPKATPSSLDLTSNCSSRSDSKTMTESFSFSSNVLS
T14 sequence (P33261 whole entry): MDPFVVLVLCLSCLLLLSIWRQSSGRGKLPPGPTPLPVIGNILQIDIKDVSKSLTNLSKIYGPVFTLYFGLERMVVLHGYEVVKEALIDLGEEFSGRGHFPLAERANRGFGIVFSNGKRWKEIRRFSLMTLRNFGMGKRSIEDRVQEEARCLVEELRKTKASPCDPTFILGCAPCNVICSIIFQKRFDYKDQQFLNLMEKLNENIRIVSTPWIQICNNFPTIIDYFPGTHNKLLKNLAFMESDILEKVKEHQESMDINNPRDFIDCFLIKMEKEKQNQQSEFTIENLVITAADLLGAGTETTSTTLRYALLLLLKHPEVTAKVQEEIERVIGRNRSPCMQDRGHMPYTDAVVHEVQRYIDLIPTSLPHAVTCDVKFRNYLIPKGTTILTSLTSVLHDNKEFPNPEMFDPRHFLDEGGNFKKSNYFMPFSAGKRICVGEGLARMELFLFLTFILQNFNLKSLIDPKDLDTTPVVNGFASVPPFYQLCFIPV
T2 sequence (P43140 whole entry): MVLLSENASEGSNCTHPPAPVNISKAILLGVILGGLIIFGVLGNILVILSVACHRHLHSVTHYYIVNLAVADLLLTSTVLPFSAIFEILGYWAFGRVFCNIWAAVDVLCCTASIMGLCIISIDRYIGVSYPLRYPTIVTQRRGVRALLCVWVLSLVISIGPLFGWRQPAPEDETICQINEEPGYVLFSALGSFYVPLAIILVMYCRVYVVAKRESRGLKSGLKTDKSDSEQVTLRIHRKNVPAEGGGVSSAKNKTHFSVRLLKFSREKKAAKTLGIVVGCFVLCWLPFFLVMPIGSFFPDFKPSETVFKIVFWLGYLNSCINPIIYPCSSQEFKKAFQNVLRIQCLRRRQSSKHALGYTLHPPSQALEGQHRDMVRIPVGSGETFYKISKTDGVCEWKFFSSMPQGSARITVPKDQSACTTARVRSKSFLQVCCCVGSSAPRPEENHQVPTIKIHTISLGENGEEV
T7 sequence (P08588 whole entry): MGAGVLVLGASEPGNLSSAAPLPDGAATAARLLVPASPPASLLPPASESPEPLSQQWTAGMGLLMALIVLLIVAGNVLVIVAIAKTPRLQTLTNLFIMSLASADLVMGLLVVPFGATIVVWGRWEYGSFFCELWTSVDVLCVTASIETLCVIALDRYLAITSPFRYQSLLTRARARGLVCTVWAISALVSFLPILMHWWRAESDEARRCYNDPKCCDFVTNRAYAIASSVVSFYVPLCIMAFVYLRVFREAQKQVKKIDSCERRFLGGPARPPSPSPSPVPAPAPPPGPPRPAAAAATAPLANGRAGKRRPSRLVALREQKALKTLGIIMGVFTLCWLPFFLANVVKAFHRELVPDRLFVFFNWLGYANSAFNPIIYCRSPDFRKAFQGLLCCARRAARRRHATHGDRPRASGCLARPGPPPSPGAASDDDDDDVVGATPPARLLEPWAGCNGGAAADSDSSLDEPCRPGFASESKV
T16 sequence (P10635 whole entry): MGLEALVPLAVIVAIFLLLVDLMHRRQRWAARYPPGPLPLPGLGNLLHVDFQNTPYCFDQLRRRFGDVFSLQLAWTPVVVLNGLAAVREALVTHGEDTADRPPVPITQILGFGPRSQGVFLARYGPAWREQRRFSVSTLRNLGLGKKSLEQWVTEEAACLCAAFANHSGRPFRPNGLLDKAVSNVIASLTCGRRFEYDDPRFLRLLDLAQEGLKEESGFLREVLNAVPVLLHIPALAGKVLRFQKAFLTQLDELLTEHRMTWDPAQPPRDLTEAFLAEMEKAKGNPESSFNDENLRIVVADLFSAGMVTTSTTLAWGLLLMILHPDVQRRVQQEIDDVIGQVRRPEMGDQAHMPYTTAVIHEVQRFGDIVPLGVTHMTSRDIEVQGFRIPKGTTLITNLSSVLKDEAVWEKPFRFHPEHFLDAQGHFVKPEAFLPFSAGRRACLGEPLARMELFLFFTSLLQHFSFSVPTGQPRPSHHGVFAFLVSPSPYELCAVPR
T19 sequence (P27338 whole entry): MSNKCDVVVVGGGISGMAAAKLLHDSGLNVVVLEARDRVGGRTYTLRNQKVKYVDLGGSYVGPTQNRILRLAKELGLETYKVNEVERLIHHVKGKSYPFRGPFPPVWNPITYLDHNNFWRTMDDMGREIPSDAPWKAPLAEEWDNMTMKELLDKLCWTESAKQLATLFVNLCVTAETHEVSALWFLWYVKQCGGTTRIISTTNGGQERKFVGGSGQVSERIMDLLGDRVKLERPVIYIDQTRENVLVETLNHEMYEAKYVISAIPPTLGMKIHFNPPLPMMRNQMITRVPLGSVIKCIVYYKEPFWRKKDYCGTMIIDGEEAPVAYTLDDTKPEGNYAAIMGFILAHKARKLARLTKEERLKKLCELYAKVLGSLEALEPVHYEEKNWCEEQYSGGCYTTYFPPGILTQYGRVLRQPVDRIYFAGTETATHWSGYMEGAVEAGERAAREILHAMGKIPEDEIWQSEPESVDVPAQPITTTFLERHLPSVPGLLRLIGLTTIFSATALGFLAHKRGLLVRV
T8 sequence (Q96P65 whole entry): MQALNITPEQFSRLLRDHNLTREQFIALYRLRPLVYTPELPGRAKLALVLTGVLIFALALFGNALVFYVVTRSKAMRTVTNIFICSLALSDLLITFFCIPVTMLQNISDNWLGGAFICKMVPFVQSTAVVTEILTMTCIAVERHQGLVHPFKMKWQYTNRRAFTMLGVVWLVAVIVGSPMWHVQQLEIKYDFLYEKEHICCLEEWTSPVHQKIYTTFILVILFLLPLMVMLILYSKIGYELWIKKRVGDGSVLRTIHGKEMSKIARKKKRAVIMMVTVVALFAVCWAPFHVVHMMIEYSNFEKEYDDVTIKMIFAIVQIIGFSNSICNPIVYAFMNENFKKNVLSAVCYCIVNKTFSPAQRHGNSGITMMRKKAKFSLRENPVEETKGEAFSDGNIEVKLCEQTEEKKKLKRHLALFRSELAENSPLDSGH
T15 sequence (P11712 whole entry): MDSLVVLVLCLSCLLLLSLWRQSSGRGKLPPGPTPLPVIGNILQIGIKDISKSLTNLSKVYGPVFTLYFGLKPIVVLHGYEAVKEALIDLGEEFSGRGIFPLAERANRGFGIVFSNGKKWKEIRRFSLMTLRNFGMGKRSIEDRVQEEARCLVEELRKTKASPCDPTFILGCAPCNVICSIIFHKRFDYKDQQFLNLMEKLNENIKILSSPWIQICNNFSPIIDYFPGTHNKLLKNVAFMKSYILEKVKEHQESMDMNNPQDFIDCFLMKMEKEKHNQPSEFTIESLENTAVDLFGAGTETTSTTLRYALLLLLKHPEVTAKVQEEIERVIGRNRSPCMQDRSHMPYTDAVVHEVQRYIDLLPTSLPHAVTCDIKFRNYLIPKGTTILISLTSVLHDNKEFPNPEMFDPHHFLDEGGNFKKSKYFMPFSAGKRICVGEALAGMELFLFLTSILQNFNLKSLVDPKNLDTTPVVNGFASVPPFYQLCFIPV

Cc1ccc2c(c1)c1c(n2CCc2ccc(C)nc2)CCN(C)C1 [Dimebon, 2,3,4,5-Tetrahydro-2,8-dimethyl-5-(2-(6-methyl-3-pyridyl)ethyl)-1H-pyrido(4,3-b)indole]
inhibition at 10 µM [1]: > 90%
inhibition at 10 µM (α1A-Adrenergic receptor): > 90%
inhibition at 10 µM (Histamine H2 receptor): > 90%
inhibition at 10 µM (Serotonin 5-HT6 receptor [2]): > 90%
inhibition at 10 µM (α1D-Adrenergic receptor): > 90%
inhibition at 10 µM (Adenosine A2A): -3%
inhibition at 10 µM (Adrenergic beta1): -7%
inhibition at 10 µM [3]: 4%
inhibition at 10 µM (Opiate mu (OP3, MOP)): 10%
inhibition at 10 µM [4]: 95%
inhibition at 10 µM (Serotonin 5-HT6 receptor [5]): 101%
inhibition at 10 µM (Tachykinin NK1): 20%
inhibition at 10 µM (α1B-Adrenergic receptor): 100%
inhibition at 10 µM (Potassium Channel hERG): 45%
inhibition at 10 µM [6]: 1%
inhibition at 10 µM (CYP450, 2C19): 55%
inhibition at 10 µM (CYP450, 2C9): 2%
inhibition at 10 µM (CYP450, 2D6): 16%
inhibition at 10 µM (CYP450, 3A4): 22%
inhibition at 10 µM (Monoamine Oxidase MAO-A): 6%
inhibition at 10 µM (Monoamine Oxidase MAO-B): 5%
inhibition at 10 µM [7]: -9%
